Experimental data published in patent publication US20050250801A1, “Method of treating cancer with azaspirane compositions” (priority 2003, published 2005).
Structures can show the parent of a compound that is named as a salt.

Assay: Excretion of radioactivity after single oral administration to male rats, target dose 1 mg free base/kg
Type: in vivo, Sprague Dawley rats
Set-up: Excretion of Radioactivity: unit not given beside the values
Description: [^14C] N,N,-diethyl-8,8-dipropyl-2-azaspiro[4,5]decane-2-propanamine dimaleate salt, (“Compound II”) with a specific activity of 91 uCi/mg and chemical purity >99%, and non-radiolabeled dimaleate salt of N,N,-diethyl-8,8-dipropyl-2-azaspiro[4,5]decane-2-propanamine dimaleate (Compound 1) chemical purity >98%, respectively, were used in this study. The site of the radiocarbon label in Compound II is depicted by an asterisk in Formula II. The non-radiolabeled material was used for reference purposes. The radiolabeled material was stored at ca […] in the dark and the non-radiolabeled material at ca −20° C. in the dark.
Three healthy male Sprague Dawley rats (Crl:CD(SD)BR), age ca 8-9 weeks, body weights at dosing 237-255 g, were supplied by Charles River (UK) Limited. The animals were housed in holding cages suitable for this species for 8 days prior to use. SDS Rat and Mouse Maintenance Diet No. 1, (Special Diets Services, Witham Essex), and mains quality water were available ad libitum throughout. The diet and water supplied to the animals were routinely analyzed for quality and no problems were detected. Holding and study areas had automatic control of light cycle and temperature. The actual range of temperature measured during the study was 17-25° C. with relative humidity measured at 60%.
The dose was prepared for oral administration on the day of dosing. […]
For each rat, an aliquot of the dose solution was administered orally by gavage. […] For each dose, the combined weight of dose and dosing equipment were recorded prior to dosing and the discharged dosing equipment was weighed after dosing. The concentration of radioactive material in each dose solution was also determined.
Immediately following dosing, the rats were placed into all glass metabolism cages suitable for the quantitative collection of excreta and expired air. All samples were collected into individual, uniquely labeled containers.
[…] The collection containers were cooled by solid CO2 during the first 48 hours after dosing.
[…] Collection containers were cooled by solid CO2 during the first 48 hours.
At the time of each feces collection, each cage was washed with water (ca 750 mL) and the washings were retained for radioassay. During the periods 0-24 h and 24-48 hours after dosing, expired air was passed through 2 serial traps containing ethanolamine:ethoxyethaonol (3:7, v/v) in order to effect the removal of CO2. The trap solvent was sampled for radioassay at the end of each collection period.
At 168 hours post dose, each animal was killed by CO2 narcosis and cervical dislocation. Gastrointestinal tracts were removed and retained separately from the carcasses in preparation for radioassay.
All urine and feces samples were stored frozen ([…]) prior to and after analysis. Cage washes were stored at room temperature until analysis was complete and were then discarded. All carcasses and gastro-intestinal tracts were stored frozen at ca-20° C. prior to analysis.
Duplicate aliquots of urine (ca 0.3 mL) and cage washings (ca 1 mL) were dispensed, diluted to 1 mL with distilled water (if considered necessary) and mixed with Quickzint 1 scintillation fluid (10 mL; Zinsser Analytic Maidenhead, UK).
Feces were homogenised in 1 to 2 volumes of water with the sample and homogenate weight recorded. Duplicate aliquots (ca 0.3) were taken from each sample and dispensed onto combustopads contained in combustocones (Can berra Packard Limited, Pangbourne, UK). When dry, these samples were combusted using a Packard Tri-Carb 306 Automatic Sample Oxidiser. The resultant ^14CO2 generated was collected by absorption in Carbo-Sorb® (8 mL; Can berra Packard Limited) to which Permafluor®E^+ scintillation fluid (10 mL; Can berra Packard Limited) was added.
For each rat, the carcass and gastro-intestinal tract with contents were solubilised in Soluene 350 (Canberra Packard). When dissolved, portions of the digest (ca 0.1 mL) were taken for liquid scintillation spectrometry. […]

## CCCC1(CCC)CCC2(CCN(CCCN(CC)CC)C2)CC1 [Compound II, [^14C] N,N,-diethyl-8,8-dipropyl-2-azaspiro[4,5]decane-2-propanamine dimaleate salt]
0-48 hours collection
  Dose recovered in expired air: Less than 0.2%
Cage Wash 0-24 hours, #1 male
  Excretion of Radioactivity: 0.1
Cage Wash 0-24 hours, #2 male
  Excretion of Radioactivity: 0.1
Cage Wash 0-24 hours, #3 male
  Excretion of Radioactivity: *<0.1
Cage Wash 0-24 hours, Mean
  Excretion of Radioactivity: ^+0.1
Cage Wash 0-168 hours, #1 male
  Excretion of Radioactivity: 0.7
Cage Wash 0-168 hours, #2 male
  Excretion of Radioactivity: 1.0
Cage Wash 0-168 hours, #3 male
  Excretion of Radioactivity: 1.3
Cage Wash 0-168 hours, Mean
  Excretion of Radioactivity: 1.0
Cage Wash 24-48 hours, #1 male
  Excretion of Radioactivity: 0.1
Cage Wash 24-48 hours, #2 male
  Excretion of Radioactivity: <0.1
Cage Wash 24-48 hours, #3 male
  Excretion of Radioactivity: 0.1
Cage Wash 24-48 hours, Mean
  Excretion of Radioactivity: 0.1
Cage Wash 48-72 hours, #1 male
  Excretion of Radioactivity: <0.1
Cage Wash 48-72 hours, #2 male
  Excretion of Radioactivity: 0.2
Cage Wash 48-72 hours, #3 male
  Excretion of Radioactivity: 0.2
Cage Wash 48-72 hours, Mean
  Excretion of Radioactivity: 0.1
Cage Wash 72-96 hours, #1 male
  Excretion of Radioactivity: 0.1
Cage Wash 72-96 hours, #2 male
  Excretion of Radioactivity: 0.2
Cage Wash 72-96 hours, #3 male
  Excretion of Radioactivity: 0.3
Cage Wash 72-96 hours, Mean
  Excretion of Radioactivity: 0.2
Cage Wash 96-120 hours, #1 male
  Excretion of Radioactivity: 0.1
Cage Wash 96-120 hours, #2 male
  Excretion of Radioactivity: 0.2
Cage Wash 96-120 hours, #3 male
  Excretion of Radioactivity: 0.2
Cage Wash 96-120 hours, Mean
  Excretion of Radioactivity: 0.2
Cage Wash 120-144 hours, #1 male
  Excretion of Radioactivity: 0.1
Cage Wash 120-144 hours, #2 male
  Excretion of Radioactivity: 0.1
Cage Wash 120-144 hours, #3 male
  Excretion of Radioactivity: 0.3
Cage Wash 120-144 hours, Mean
  Excretion of Radioactivity: 0.2
Cage Wash 144-168 hours, #1 male
  Excretion of Radioactivity: 0.2
Cage Wash 144-168 hours, #2 male
  Excretion of Radioactivity: 0.2
Cage Wash 144-168 hours, #3 male
  Excretion of Radioactivity: 0.2
Cage Wash 144-168 hours, Mean
  Excretion of Radioactivity: 0.2
Cage Washings, 168 hour collection period, #3 male
  Recovery of Radioactivity: *1.3 % administered dose
Cage Washings, 168 hour collection period, Mean
  Recovery of Radioactivity: ^+1.0 % administered dose
Carcass, at 168 hours, #1 male
  Recovery of Radioactivity: 11.3 % administered dose
Carcass, at 168 hours, #2 male
  Recovery of Radioactivity: 14.1 % administered dose
Carcass, at 168 hours, #3 male
  Recovery of Radioactivity: 14.9 % administered dose
Carcass, at 168 hours, Mean
  Recovery of Radioactivity: 13.5 % administered dose
Expired air 1, #1 male
  Recovery of Radioactivity: *<0.1 % administered dose
Expired air 1, #2 male
  Recovery of Radioactivity: *<0.1 % administered dose
Expired air 1, #3 male
  Recovery of Radioactivity: *<0.1 % administered dose
Expired air 1, Mean
  Recovery of Radioactivity: ^+<0.1 % administered dose
Expired air 2, #1 male
  Recovery of Radioactivity: *<0.1 % administered dose
Expired air 2, #2 male
  Recovery of Radioactivity: *<0.1 % administered dose
Expired air 2, #3 male
  Recovery of Radioactivity: *<0.1 % administered dose
Expired air 2, Mean
  Recovery of Radioactivity: ^+<0.1 % administered dose
Feces 0-24 hours, #1 male
  Excretion of Radioactivity: 18.2
Feces 0-24 hours, #2 male
  Excretion of Radioactivity: 14.7
Feces 0-24 hours, #3 male
  Excretion of Radioactivity: 17.7
Feces 0-24 hours, Mean
  Excretion of Radioactivity: 16.9
Feces 0-168 hours, #1 male
  Excretion of Radioactivity: 64.0
Feces 0-168 hours, #2 male
  Excretion of Radioactivity: 65.7
Feces 0-168 hours, #3 male
  Excretion of Radioactivity: 66.7
Feces 0-168 hours, Mean
  Excretion of Radioactivity: 65.5
Feces 24-48 hours, #1 male
  Excretion of Radioactivity: 16.3
Feces 24-48 hours, #2 male
  Excretion of Radioactivity: 17.2
Feces 24-48 hours, #3 male
  Excretion of Radioactivity: 14.5
Feces 24-48 hours, Mean
  Excretion of Radioactivity: 16.0
Feces 48-72 hours, #1 male
  Excretion of Radioactivity: 10.0
Feces 48-72 hours, #2 male
  Excretion of Radioactivity: 15.2
Feces 48-72 hours, #3 male
  Excretion of Radioactivity: 12.7
Feces 48-72 hours, Mean
  Excretion of Radioactivity: 12.6
